Activity calls are given as the source filed them.
How the values were obtained:
[1] = target: Cytochrome P450 2C9 (Homo sapiens, UniProt P11712)
[2] = target: Cytochrome P450 3A4 (Homo sapiens, UniProt P08684);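 note: CYP3A4 tested as one member of a cytochrome P450 panel screen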
[3] = NIH3T3 cell viability loss – ATP luminescence, mouse fibroblasts, counter-screen, dose response (AID 2010); type: functional, cell-based;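 note: cells exposed to compound for about 90 hours before reading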
[4] = tested on: Vero; assay: cells; type: functional; settings: Chlorocebus sabaeus
[5] = target: T1, DNA repair and recombination protein RAD54-like (Homo sapiens, UniProt Q92698); assay: RAD54 Holliday junction migration blockers – biochemical, fluorescence, cherry-picked samples, dose series, confirmation (AID 651657); type: functional
T1 sequence (Q92698 whole entry): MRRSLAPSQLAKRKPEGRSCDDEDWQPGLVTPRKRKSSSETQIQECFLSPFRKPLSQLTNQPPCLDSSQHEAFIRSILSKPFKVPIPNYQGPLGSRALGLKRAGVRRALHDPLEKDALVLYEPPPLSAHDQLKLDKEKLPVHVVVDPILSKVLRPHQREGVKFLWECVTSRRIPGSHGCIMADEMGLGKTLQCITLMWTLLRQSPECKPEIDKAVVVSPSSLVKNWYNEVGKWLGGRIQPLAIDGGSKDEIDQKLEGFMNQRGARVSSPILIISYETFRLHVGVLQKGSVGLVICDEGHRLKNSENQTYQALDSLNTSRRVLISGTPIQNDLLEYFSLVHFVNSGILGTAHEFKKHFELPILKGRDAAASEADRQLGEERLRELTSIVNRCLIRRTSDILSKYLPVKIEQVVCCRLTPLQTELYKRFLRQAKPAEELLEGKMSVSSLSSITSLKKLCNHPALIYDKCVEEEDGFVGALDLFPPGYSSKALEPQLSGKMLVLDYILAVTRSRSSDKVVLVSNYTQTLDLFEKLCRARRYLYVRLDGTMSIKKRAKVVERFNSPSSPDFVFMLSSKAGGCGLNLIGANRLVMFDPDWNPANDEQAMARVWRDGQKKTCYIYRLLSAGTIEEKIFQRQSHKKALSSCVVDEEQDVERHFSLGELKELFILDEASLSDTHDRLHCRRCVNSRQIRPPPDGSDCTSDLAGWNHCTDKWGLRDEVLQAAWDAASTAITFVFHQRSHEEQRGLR

[6] = MIN6 cell viability loss – mouse insulinoma, cytotoxicity control, dose response (AID 2122); type: functional;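 note: confirmatory high-throughput counterscreen run to flag cytotoxic compounds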
[7] = Trypanosoma cruzi growth suppression in host cells – NIH3T3 host cells, beta-gal luminescence, confirmation (AID 2044); type: functional, cell-based;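 note: intracellular parasites grown in NIH/3T3 mouse fibroblasts as host cells; luminescent beta-galactosidase reporter signal from transgenic T. cruzi replicating inside host cells; inhibitors lower the luminescence signal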
[8] = decrease of insulin promoter-GFP reporter – imaging, high-content screening, mouse beta cells (AID 1628); type: functional; settings: MIN6
[9] = target: T2, SUMO-activating enzyme (Homo sapiens, UniProt Q9UBT2); assay: blockers of UBC9-mediated SUMO conjugation – biochemical, AlphaScreen, SUMOylation inhibitor project, confirmation (AID 2018); type: functional
T2 sequence (Q9UBE0 whole entry): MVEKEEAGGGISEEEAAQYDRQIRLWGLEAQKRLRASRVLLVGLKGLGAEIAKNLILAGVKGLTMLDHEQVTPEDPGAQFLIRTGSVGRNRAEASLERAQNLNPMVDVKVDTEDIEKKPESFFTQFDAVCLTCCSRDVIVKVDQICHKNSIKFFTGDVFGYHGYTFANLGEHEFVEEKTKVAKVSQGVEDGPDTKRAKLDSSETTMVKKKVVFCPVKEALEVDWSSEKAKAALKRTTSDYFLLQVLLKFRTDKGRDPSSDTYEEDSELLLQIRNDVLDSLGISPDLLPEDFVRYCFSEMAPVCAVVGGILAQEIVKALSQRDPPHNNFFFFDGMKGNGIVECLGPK
T2 sequence (Q9UBT2 whole entry): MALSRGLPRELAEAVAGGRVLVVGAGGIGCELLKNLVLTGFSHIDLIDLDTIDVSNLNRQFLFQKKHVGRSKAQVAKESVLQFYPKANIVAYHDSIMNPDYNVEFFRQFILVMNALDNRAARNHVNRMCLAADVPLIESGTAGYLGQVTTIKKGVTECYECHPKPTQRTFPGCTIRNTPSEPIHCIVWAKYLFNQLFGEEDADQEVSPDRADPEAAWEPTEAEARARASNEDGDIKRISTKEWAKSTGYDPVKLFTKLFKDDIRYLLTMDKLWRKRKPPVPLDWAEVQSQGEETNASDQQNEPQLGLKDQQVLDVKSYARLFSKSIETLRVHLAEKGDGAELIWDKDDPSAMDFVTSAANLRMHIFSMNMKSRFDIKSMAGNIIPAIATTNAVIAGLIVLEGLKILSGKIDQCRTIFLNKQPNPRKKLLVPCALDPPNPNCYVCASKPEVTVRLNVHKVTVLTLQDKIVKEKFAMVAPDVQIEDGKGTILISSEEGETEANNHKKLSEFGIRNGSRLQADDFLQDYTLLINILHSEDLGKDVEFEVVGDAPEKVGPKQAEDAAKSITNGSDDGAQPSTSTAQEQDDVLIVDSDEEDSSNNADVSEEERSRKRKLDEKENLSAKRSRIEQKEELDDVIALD

[10] = target: Dual specificity protein phosphatase 3 (Homo sapiens, UniProt P51452); assay: VHR phosphatase inhibition, dose response, selectivity assay for STEP inhibitor project, biochemical (AID 602374); type: functional; settings: read-out: IC50_Mean
Sequence of Dual specificity protein phosphatase 3 (P51452 whole entry): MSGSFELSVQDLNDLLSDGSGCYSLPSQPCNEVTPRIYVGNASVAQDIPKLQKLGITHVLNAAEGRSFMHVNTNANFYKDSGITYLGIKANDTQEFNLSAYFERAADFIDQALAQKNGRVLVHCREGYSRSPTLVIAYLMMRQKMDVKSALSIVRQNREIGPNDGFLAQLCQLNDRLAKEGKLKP

[11] = target: T3, Low molecular weight phosphotyrosine protein phosphatase (Homo sapiens, UniProt P24666); type: functional; settings: read-out: IC50_Mean;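 note: Dose-response confirmation assay measuring inhibition of LMPTP enzyme activity by fluorescence intensity read-out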
T3 sequence (P24666 whole entry): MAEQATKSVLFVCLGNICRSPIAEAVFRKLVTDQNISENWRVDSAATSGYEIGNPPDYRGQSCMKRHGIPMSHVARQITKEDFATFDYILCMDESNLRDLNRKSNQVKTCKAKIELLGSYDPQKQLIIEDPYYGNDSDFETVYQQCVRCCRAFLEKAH

[12] = target: T4, Carboxy-terminal domain RNA polymerase II polypeptide A small phosphatase 1 (Homo sapiens, UniProt Q9GZU7); assay: CTDSP1 inhibitors, concentration-response, biochemical, absorbance readout, ultra-high-throughput screen actives (AID 540297); type: functional
T4 sequence (Q9GZU7 whole entry): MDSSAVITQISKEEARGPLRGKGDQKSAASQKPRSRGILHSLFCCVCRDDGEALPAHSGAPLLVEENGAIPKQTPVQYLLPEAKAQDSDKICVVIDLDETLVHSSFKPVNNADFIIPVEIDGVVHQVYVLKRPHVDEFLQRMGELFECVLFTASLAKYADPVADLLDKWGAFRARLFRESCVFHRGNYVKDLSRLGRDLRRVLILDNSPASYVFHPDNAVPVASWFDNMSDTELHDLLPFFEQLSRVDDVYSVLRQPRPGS

[13] = target: T5, Tyrosine-protein phosphatase non-receptor type 11 (Homo sapiens, UniProt Q06124); assay: PTPN11 enzyme inhibitors – biochemical, selectivity assay for STEP inhibitor project, dose response (AID 602367); type: functional; settings: read-out: IC50_Mean
T5 sequence (Q06124 whole entry): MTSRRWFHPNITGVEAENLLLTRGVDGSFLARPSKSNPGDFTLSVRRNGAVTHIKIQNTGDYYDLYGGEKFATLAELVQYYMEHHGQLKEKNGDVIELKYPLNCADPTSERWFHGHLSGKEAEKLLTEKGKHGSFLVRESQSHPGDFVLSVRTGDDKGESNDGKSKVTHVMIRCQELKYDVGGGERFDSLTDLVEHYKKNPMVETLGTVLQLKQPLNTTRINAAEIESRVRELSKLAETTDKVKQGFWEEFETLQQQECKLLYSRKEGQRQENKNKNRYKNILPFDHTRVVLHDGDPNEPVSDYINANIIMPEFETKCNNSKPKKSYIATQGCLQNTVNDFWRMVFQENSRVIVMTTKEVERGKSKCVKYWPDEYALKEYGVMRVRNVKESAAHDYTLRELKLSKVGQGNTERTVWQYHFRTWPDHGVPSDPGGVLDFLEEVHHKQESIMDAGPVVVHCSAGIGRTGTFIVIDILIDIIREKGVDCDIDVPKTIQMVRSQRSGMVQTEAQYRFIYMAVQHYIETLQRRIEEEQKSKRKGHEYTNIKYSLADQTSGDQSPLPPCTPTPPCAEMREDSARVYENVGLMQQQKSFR

[14] = target: T6, Tyrosine-protein phosphatase non-receptor type 5 (Homo sapiens, UniProt P54829); assay: PTPN5 enzyme inhibition – biochemical, fluorescence intensity, uHTS hits, confirmation (AID 602372); type: functional; settings: read-out: IC50_Mean
T6 sequence (P54829 whole entry): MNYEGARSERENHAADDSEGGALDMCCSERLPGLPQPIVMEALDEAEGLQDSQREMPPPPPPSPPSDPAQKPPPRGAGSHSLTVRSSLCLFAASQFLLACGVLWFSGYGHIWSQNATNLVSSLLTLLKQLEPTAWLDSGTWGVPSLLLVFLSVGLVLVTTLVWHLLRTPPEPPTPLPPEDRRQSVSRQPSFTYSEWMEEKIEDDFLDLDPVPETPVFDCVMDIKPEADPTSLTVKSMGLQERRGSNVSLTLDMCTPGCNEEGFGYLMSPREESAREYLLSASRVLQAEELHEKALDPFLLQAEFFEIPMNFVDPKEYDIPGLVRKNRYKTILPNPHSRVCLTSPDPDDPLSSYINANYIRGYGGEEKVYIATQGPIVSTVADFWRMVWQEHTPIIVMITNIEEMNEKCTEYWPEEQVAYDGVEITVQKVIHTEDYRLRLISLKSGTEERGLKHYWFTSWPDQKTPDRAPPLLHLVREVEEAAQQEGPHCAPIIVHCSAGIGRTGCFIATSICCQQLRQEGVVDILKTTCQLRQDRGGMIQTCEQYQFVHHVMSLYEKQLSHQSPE

[15] = target: T2, SUMO-activating enzyme; assay: blockers of SAE1/SAE2–UBC9 SUMO transfer – biochemical, HTRF, uHTS, primary screen (AID 2006); type: protein-complex assay
[16] = target: Induced myeloid leukemia cell differentiation protein Mcl-1 (Homo sapiens, UniProt Q07820); type: functional
Sequence of Induced myeloid leukemia cell differentiation protein Mcl-1 (Q07820 whole entry): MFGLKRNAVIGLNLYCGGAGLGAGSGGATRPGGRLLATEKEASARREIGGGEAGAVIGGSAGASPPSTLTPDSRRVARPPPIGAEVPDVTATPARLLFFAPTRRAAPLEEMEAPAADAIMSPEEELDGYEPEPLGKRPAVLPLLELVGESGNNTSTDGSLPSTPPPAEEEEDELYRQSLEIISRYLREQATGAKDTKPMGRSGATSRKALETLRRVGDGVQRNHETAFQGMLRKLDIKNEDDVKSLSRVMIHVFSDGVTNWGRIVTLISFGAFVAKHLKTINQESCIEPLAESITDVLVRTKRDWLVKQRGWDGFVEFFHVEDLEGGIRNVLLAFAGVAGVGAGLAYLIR

[17] = target: Genome polyprotein (Hepatitis C virus, UniProt Q2Q167); assay: disruption of hepatitis C core self-association – biochemical, TR-FRET, dose response (AID 2159); parameters: species or system Hepacivirus hominis;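 note: blocks dimerization of HCV core protein measured by TR-FRET between tagged core106 pairs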
Sequence of Genome polyprotein (Q2Q167 whole entry): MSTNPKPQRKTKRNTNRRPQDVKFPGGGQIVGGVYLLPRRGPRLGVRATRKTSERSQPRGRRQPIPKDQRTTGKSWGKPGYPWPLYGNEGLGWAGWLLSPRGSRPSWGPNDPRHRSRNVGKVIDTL

[18] = target: Eukaryotic translation initiation factor 4E (Mus musculus, UniProt P63073); assay: blockers of eIF4G binding by eIF4E – biochemical, TR-FRET, dose response (AID 855); type: functional;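 note: potency for disrupting eIF4E binding to eIF4GI seen as loss of FRET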
Sequence of Eukaryotic translation initiation factor 4E (P63073 whole entry): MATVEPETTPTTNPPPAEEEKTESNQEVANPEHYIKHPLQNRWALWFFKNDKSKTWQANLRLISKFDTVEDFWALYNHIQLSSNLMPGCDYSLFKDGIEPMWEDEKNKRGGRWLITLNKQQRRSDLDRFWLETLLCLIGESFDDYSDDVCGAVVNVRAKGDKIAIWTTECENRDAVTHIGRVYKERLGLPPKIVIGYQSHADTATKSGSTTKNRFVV

[19] = target: Cytochrome P450 2C19 (Homo sapiens, UniProt P33261); assay: Cytochrome panel assay with activity outcomes. Panel member name: p450-cyp2c19 Compounds with AC50 equal or less than 10 uM are considered active; type: functional; settings: read-out: AC50
Sequence of Cytochrome P450 2C19 (P33261 whole entry): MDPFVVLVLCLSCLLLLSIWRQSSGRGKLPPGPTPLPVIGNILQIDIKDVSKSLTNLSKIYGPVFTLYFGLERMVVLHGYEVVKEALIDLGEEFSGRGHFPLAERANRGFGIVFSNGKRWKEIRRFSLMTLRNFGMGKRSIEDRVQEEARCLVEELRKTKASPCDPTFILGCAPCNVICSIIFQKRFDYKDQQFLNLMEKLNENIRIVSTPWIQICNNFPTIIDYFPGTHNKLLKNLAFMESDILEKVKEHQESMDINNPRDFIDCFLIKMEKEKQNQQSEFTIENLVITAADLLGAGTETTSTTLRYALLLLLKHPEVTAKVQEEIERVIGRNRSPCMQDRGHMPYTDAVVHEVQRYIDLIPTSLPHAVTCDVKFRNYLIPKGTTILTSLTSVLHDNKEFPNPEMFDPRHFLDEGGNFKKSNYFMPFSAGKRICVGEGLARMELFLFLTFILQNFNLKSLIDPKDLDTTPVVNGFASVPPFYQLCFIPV

[20] = target: T7, Cytochrome P450 1A2 (Homo sapiens, UniProt P05177);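 note: PubChem cytochrome P450 panel assay, CYP1A2 panel member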
T7 sequence (P05177 whole entry): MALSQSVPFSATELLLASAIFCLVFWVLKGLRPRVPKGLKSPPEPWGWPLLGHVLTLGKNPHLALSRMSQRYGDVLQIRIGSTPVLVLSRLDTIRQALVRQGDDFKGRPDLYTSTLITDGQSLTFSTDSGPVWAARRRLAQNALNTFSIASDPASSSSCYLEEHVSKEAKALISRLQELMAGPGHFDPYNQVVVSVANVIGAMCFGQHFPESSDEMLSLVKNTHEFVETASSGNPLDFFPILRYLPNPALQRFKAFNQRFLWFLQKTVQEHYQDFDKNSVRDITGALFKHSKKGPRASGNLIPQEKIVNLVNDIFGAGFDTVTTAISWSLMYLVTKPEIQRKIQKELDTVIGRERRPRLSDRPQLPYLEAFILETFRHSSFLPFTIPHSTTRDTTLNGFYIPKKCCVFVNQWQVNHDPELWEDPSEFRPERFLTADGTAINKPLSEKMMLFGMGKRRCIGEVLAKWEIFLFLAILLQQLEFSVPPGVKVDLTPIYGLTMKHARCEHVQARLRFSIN

[21] = target: T8, Intestinal-type alkaline phosphatase (Homo sapiens, UniProt P09923); assay: activation of human intestinal alkaline phosphatase – biochemical, luminescent, uHTS hits, set 2, dose response (AID 488817); type: functional;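 note: potency of activators that raise enzyme activity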
T8 sequence (P09923 whole entry): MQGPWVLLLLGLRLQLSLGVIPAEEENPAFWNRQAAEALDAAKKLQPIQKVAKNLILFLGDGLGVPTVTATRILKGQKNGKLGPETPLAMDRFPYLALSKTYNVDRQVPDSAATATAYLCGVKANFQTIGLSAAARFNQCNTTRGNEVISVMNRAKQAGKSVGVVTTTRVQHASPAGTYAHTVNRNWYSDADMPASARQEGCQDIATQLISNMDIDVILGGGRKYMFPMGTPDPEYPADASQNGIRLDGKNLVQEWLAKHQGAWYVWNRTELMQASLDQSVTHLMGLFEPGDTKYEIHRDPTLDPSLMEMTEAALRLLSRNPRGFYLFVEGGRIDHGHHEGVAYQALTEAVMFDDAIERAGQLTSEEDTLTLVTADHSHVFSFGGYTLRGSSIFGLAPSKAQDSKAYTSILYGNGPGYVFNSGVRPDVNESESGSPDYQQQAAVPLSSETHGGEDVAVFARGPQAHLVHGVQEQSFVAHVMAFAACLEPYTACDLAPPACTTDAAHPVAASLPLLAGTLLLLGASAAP

[22] = target: Intestinal-type alkaline phosphatase (Mus musculus, UniProt P24822); assay: PubChem AID 488874; type: functional
Sequence of Intestinal-type alkaline phosphatase (Mus musculus, UniProt P24822) (P24822 whole entry): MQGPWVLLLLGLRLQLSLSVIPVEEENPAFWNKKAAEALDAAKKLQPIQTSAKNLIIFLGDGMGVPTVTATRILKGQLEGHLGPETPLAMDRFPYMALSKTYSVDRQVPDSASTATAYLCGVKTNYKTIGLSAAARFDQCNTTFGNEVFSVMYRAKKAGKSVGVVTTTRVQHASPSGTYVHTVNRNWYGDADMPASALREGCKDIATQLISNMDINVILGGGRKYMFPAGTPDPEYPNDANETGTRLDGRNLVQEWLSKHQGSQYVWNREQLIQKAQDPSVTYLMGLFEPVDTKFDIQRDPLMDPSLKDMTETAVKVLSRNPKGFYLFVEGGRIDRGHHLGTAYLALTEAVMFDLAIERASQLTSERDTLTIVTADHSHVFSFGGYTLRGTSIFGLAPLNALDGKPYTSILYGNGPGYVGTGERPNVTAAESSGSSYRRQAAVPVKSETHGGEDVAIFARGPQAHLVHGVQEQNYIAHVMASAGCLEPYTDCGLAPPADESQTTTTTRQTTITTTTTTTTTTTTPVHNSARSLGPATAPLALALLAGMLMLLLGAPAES

[23] = target: T8, Intestinal-type alkaline phosphatase; assay: human intestinal alkaline phosphatase activators, dose response, biochemical, luminescence, uHTS hits (AID 463120); type: functional
[24] = target: T9, Alkaline phosphatase, tissue-nonspecific isozyme (Homo sapiens, UniProt P05186); assay: activation of tissue-nonspecific alkaline phosphatase – biochemical, TNAP isozyme, human IAP uHTS hits, selectivity assay for human IAP activator project, dose response (AID 488886); type: functional;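 note: potency of compounds raising TNAP activity as a selectivity check on IAP activators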
T9 sequence (P05186 whole entry): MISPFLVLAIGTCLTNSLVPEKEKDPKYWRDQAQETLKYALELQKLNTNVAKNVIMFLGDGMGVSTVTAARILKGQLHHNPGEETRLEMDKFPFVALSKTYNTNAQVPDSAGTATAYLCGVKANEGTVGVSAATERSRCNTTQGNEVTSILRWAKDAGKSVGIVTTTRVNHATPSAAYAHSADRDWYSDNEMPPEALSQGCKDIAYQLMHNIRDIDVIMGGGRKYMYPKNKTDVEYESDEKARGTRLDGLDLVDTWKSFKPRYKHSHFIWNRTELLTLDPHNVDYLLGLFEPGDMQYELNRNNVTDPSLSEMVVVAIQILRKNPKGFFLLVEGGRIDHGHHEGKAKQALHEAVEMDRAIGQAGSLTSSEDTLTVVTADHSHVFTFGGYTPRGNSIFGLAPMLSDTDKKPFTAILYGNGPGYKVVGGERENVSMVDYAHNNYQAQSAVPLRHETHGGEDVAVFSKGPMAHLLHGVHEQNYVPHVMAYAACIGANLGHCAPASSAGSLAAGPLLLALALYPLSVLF

[25] = tested on: Jurkat; assay: SAR Analysis of small molecule inhibitors of […] specific antigen receptor-induced NF-kB activation in a Jurkat cell line using a luminescence assay - Set 3. [Related pubchem assays (depositor defined):AID435022, AID435025, AID465]; type: functional, cell-based; settings: Homo sapiens
[26] = tested on: HEK293; assay: HEK293T cell viability loss, resazurin readout – resazurin fluorescence, cytotoxicity control for NF-kB activator project, SAR follow-up (AID 493251); type: functional, cell-based; settings: Homo sapiens
[27] = tested on: HEK293; assay: SAR Analysis of small molecule inhibitors of B-cell specific antigen receptor-induced NF-kB activation in a HEK-293T cell line using a luminescence assay - Set 2. [Related pubchem assays (depositor defined):AID435022, AID435025, AID489021]; type: functional, cell-based; settings: Homo sapiens

Sequence of Cytochrome P450 3A4 (P08684 whole entry): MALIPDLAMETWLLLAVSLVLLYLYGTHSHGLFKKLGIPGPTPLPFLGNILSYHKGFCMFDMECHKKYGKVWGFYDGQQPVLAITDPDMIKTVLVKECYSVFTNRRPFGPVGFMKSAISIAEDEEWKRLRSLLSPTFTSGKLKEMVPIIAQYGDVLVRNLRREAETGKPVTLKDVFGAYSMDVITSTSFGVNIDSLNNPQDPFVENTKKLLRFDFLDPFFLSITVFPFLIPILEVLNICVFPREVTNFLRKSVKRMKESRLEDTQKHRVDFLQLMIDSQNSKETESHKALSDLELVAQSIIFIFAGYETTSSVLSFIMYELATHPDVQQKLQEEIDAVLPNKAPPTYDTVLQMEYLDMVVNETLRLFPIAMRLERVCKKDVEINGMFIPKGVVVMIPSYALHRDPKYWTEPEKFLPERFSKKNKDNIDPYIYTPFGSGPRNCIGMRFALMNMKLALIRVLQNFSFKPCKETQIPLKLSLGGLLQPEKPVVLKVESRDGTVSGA
Sequence of Cytochrome P450 2C9 (P11712 whole entry): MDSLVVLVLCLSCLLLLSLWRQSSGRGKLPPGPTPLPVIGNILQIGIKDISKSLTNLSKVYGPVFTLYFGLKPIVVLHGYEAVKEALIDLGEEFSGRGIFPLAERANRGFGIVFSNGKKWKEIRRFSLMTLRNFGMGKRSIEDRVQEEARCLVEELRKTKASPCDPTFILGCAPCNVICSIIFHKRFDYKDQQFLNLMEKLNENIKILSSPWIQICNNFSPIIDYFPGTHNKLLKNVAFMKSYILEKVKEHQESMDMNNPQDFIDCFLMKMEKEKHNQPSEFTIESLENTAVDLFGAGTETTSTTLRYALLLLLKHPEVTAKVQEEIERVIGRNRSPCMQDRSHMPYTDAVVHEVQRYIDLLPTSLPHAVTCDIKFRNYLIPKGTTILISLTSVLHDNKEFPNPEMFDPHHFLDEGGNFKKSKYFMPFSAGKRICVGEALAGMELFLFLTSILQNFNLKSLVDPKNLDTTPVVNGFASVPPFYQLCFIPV

COc1ccc2c(=O)c(-c3ccccc3)c(C)oc2c1
AC50 [1]: 10 µM (inconclusive) | AC50 [2]: inconclusive

Cc1cc(N2CCN(C)CC2)nc2ccc(NC(S)=NCCN3CCc4ccccc4C3)cc12
EC50 [3]: > 60 µM (not active) | CC50 [4]: 15.9 µM (active) | AC50 [5]: 20.4 µM (active) | IC50 [6]: 4.81 µM (active) | EC50 [7]: 683 nM (active) | IC50 [8]: 4.64 µM (active)

N=C1S/C(=C\c2ccc(O)cc2)C(=O)N1c1ccc(F)cc1
IC50 [9]: 4.87 µM (active) | IC50 [10]: 2.29 µM (active) | IC50 [11]: 32.9 µM (inactive) | IC50 [12]: 5.84 µM (active) | IC50 [13]: 2.2 µM (active) | IC50 [14]: 14.1 µM (active) | IC50 [15]: 23.9 µM (active)

CC(=O)c1sc2nc(CSc3nnnn3-c3ccccc3)[nH]c(=O)c2c1C
IC50 [16]: 1.71 µM (active) | IC50 [9]: 6.5 µM (active) | IC50 [17]: > 49.8 µM (not active) | IC50 [18]: 50 µM (inactive) | IC50 [15]: 27.9 µM (active)

O=C(c1ccccc1)c1c[nH]c(C(=O)NCCCN2CCOCC2)c1
AC50 [2]: inconclusive | AC50 [19]: 35.5 nM (inconclusive) | AC50 [20]: 25.1 µM (inconclusive)

CC(C)Oc1ccc(CCC(=O)NNC(=S)NCc2ccccc2)cc1
EC50 [21]: 21.8 µM (active) | IC50 [22]: 60.3 µM (active) | EC50 [23]: 18.8 µM (active) | EC50 [24]: 21.1 µM (active)

OC(c1nc2cc(F)ccc2[nH]1)C(O)c1nc2cc(F)ccc2[nH]1 (centres undefined)
EC50 [21]: 9.13 µM (active) | IC50 [22]: 58.5 µM (active) | EC50 [23]: 4.97 µM (active) | EC50 [24]: 9.85 µM (active)

CCOc1ccc(-c2nc(CSCC(=O)NC(C)CC)c(C)o2)cc1 (centres undefined)
IC50 [25]: > 80 µM (inactive) | IC50 [26]: 74.6 µM (inactive) | IC50 [27]: 35.7 µM (inactive)

Reference: ChEMBL document CHEMBL1201862, “PubChem BioAssay data set” (2004)
